Test results as given in EPA's ToxValDB 9.5.
Values after ≈ are worked out from the molar mass of the structure shown. Values joined by “and” are separate entries in the source; they are usually repeats but may differ in a detail not shown here. Identical values can stand only once.

Tests used:
Rattus norvegicus [1] = details: uterotrophic, Active
Rattus norvegicus [2] = details: subchronic, duration: 13 weeks, oral, gavage, M/F, Fischer 344
Rattus norvegicus [3] = details: oral
Mus musculus = details: for LD50: acute
Rattus norvegicus [4] = test system: Rattus norvegicus
[5] = subchronic, M/F, forestomach lesions, kidney toxicity
[6] = chronic, duration: 91 days, oral, gavage
[7] = chronic, duration: 103 weeks, oral, diet, B6C3F1
[8] = subchronic, duration: 12 weeks, oral, diet, M, B6C3F1
[9] = chronic, duration: 103 weeks, oral, diet, F, Fischer 344
[10] = chronic, duration: 103 weeks, oral, diet, M, Fischer 344
[11] = developmental, duration: 10 days, oral, gavage, Crl:CD(SD)
[12] = subchronic, duration: 12 weeks, oral, diet, F, Fischer 344
[13] = subchronic, duration: 12 weeks, oral, diet, M, Fischer 344
[14] = developmental, M/F, reduced pup weight
[15] = subchronic, M/F, clinical sign (e.g., hunched postures) and reduced body weight
[16] = chronic, duration: 2 years, diet, M/F, hematological effects (females)
[17] = chronic, duration: 2 years, diet, M/F, reduced body weight, increased bun
[18] = chronic, duration: 2 years, diet, M/F, reduced body weight gain (males) increased food and water consumption (males) and females
[19] = developmental, M/F, reduced body weight in parents and pups during lactation

Question: Which LEL (Rattus norvegicus [1]; duration: 7 days, oral) does the source give for `O=c1cc(-c2ccc(O)cc2)oc2cc(O)cc(O)c12` [Apigenin] here?
Answer: The LEL was 5 mg/kg-day.

Question: Which NOEL (Rattus norvegicus [2]; Deaths + Body Weight Changes: decrease + Histopathology: Brain/cerebellum -Degeneration Brain/cerebellum -Necrosis Brain/cerebellum -…) does the source give for `O=Cc1ccccc1` [Benzaldehyde] here?
Answer: Its NOEL is 200 mg/kg-day.

Question: What about the LOAEL (Rattus norvegicus [3]; [5]) of the same molecule?
Answer: Its LOAEL is 400 mg/kg-day.

Question: What about the NOEL (Rattus norvegicus [3]; [5]) of the same molecule?
Answer: The NOEL was 143 mg/kg-day and 200 mg/kg-day.

Question: Which LEL (Rattus norvegicus [1]; duration: 3 days, injection, intraperitoneal) does the source give for `O=C(c1ccccc1)c1ccccc1` [Benzophenone] here?
Answer: The LEL was 300 mg/kg-day.

Question: And the LEL (Rattus norvegicus [1]; duration: 3 days, injection, subcutaneous)?
Answer: The LEL was 500 mg/kg-day.

Question: And the LEL (Rattus norvegicus [1]; duration: 3 days, oral)?
Answer: The LEL was 400 mg/kg-day.

Question: With `CCCCC(CC)COC(=O)CCCCCCCCC(=O)OCC(CC)CCCC` (centres undefined) [Bis(2-ethylhexyl) decanedioate] as the molecule, how does the LD50 (Mus musculus; oral, gavage) read?
Answer: The LD50 was 9500 mg/kg.

Question: What about the LD50 (Rattus norvegicus [4]; acute, oral, gavage) of the same molecule?
Answer: The LD50 was 17000 mg/kg.

Question: Which results are given for `O=C([O-])c1[nH]n(-c2ccc(S(=O)(=O)[O-])cc2)c(=O)c1N=Nc1ccc(S(=O)(=O)[O-])cc1.[Na+].[Na+].[Na+]` [C.I. Acid Yellow 23]?
Answer: NOAEL (% diet) (Mus musculus; subchronic, duration: 3 months, oral, diet, CD1): 5; NOAEL (Mus musculus; subchronic, duration: 3 months, oral, diet, F, CD1): 9750 mg/kg-day; NOAEL (Mus musculus; subchronic, duration: 3 months, oral, diet, M, CD1): 8100 mg/kg-day; NOAEL (% diet) (Rattus norvegicus [4]; chronic, duration: 113 weeks, oral, diet): 5; NOAEL (Rattus norvegicus [4]; chronic, duration: 113 weeks, oral, diet, F): 3350 mg/kg-day; NOAEL (Rattus norvegicus [4]; chronic, duration: 113 weeks, oral, diet, M): 2640 mg/kg-day; NOAEL (Rattus norvegicus [4]; developmental, duration: 19 days, oral, gavage, Osborne-Mendel): > 1000 mg/kg-day; NOAEL (% diet) (Rattus norvegicus [4]; reproduction developmental, duration: 114 weeks, oral, diet): 5; NOAEL (Rattus norvegicus [4]; reproduction developmental, duration: 114 weeks, oral, diet, M): 2640 mg/kg-day and 3350 mg/kg-day; NOAEL (Rattus norvegicus [4]; reproduction developmental, duration: 19 days, oral, gavage, F, Osborne-Mendel): > 1000 mg/kg-day

Question: `Cc1cc(N=Nc2c(O)ccc3ccccc23)c(S(=O)(=O)[O-])cc1Cl.Cc1cc(N=Nc2c(O)ccc3ccccc23)c(S(=O)(=O)[O-])cc1Cl.[Ba+2]` [C.I. Pigment Red 53] was tested. Which NOAEL (Mus musculus; [6]) did it give?
Answer: Its NOAEL is 90 mg/kg-day.

Question: And the NOAEL (Rattus norvegicus [4]; [6])?
Answer: The NOAEL was 25 mg/kg-day.

Question: What about the NOAEL (Rattus norvegicus [4]; reproduction developmental, duration: 30 months, oral, gavage, F) of the same molecule?
Answer: Its NOAEL is < 10000 ppm.

Question: What about the NOAEL (Rattus norvegicus [4]; reproduction developmental, duration: 30 months, oral, gavage, generation: F0) of the same molecule?
Answer: Its NOAEL is > 10000 ppm.

Question: And the NOAEL (Rattus norvegicus [4]; reproduction developmental, duration: 30 months, oral, gavage, generation: F1)?
Answer: Its NOAEL is > 10000 ppm.

Question: With `O=S(=O)([O-])c1ccc(N=Nc2c(O)ccc3cc(S(=O)(=O)[O-])ccc23)cc1.[Na+].[Na+]` [FD&C Yellow 6] as the molecule, how does the LD50 (Mus musculus; injection, intraperitoneal, ICI Alderley Park Strain) read?
Answer: The LD50 was ≥ 4600 mg/kg and ≤ 5500 mg/kg.

Question: What about the LD50 (Mus musculus; oral, ICI Alderley Park Strain) of the same molecule?
Answer: Its LD50 is > 6000 mg/kg.

Question: What about the LOAEL (Mus musculus; [7]) of the same molecule?
Answer: The LOAEL was 4620 mg/kg-day.

Question: What about the NOAEL (Mus musculus; [7]) of the same molecule?
Answer: Its NOAEL is 2310 mg/kg-day.

Question: And the LOAEL (Mus musculus; [8])?
Answer: Its LOAEL is 19700 mg/kg-day.

Question: What about the NOAEL (Mus musculus; [8]) of the same molecule?
Answer: The NOAEL was 9850 mg/kg-day.

Question: What about the LD50 (Rattus norvegicus [4]; acute, injection, intraperitoneal, Carworth) of the same molecule?
Answer: Its LD50 is 3800 mg/kg.

Question: And the LD50 (Rattus norvegicus [4]; acute, oral, Carworth)?
Answer: The LD50 was > 10000 mg/kg.

Question: What about the LD50 (Rattus norvegicus [4]; acute, oral, gavage, Wistar) of the same molecule?
Answer: Its LD50 is > 2000 mg/kg.

Question: And the LOAEL (Rattus norvegicus [4]; [9])?
Answer: Its LOAEL is > 1950 mg/kg-day.

Question: And the NOAEL (Rattus norvegicus [4]; [9])?
Answer: The NOAEL was 1950 mg/kg-day.

Question: What about the LOAEL (Rattus norvegicus [4]; [10]) of the same molecule?
Answer: Its LOAEL is 1950 mg/kg-day.

Question: And the NOAEL (Rattus norvegicus [4]; [10])?
Answer: The NOAEL was 975 mg/kg-day.

Question: And the LOAEL (Rattus norvegicus [4]; [11])?
Answer: The LOAEL was 300 mg/kg-day.

Question: And the NOAEL (Rattus norvegicus [4]; [11])?
Answer: The NOAEL was 100 mg/kg-day.

Question: What about the NOAEL (Rattus norvegicus [4]; reproduction developmental, duration: 126 days, oral, diet, Charles River Albino CD (R), generation: F0) of the same molecule?
Answer: Its NOAEL is 1500 mg/kg-day.

Question: What about the NOAEL (Rattus norvegicus [4]; reproduction developmental, duration: 126 days, oral, diet, Charles River Albino CD (R), generation: F1) of the same molecule?
Answer: Its NOAEL is 1500 mg/kg-day.

Question: And the NOAEL (Rattus norvegicus [4]; reproduction developmental, oral, diet, Crl:CD(SD))?
Answer: The NOAEL was 500 mg/kg-day.

Question: And the LOAEL (Rattus norvegicus [4]; [12])?
Answer: The LOAEL was 1200 mg/kg-day.

Question: What about the NOAEL (Rattus norvegicus [4]; [12]) of the same molecule?
Answer: The NOAEL was 576 mg/kg-day.

Question: What about the LOAEL (Rattus norvegicus [4]; [13]) of the same molecule?
Answer: The LOAEL was 2400 mg/kg-day.

Question: What about the NOAEL (Rattus norvegicus [4]; [13]) of the same molecule?
Answer: The NOAEL was 1200 mg/kg-day.

Question: For `CCN(CC)c1ccccc1` [N,N-Diethylaniline], which LD50 (Mus musculus; injection, Intraperitoneal) is on record?
Answer: Its LD50 is 870 mg/kg.

Question: And the LD50 (Rattus norvegicus [4]; acute, dermal)?
Answer: Its LD50 is 5000 mg/kg.

Question: And the LC50 (Rattus norvegicus [4]; acute, inhalation)?
Answer: The LC50 was 1.92 µg/mL (≈ 12.9 µM).

Question: And the LD50 (Rattus norvegicus [4]; acute, oral)?
Answer: The LD50 was 720 mg/kg.

Question: And the LD50 (Rattus norvegicus [4]; acute, oral, gavage, Wistar)?
Answer: The LD50 was 606 mg/kg.

Question: And the LOAEL (Rattus norvegicus [4]; short-term, duration: 28 days, oral, gavage, Wistar)?
Answer: Its LOAEL is 10 mg/kg-day.

Question: `CC(=O)CC(=O)N(C)C` [N,N-Dimethylacetoacetamide] was tested. Which LD50 (Mus musculus; oral, gavage) did it give?
Answer: Its LD50 is ≥ 3200 mg/kg.

Question: And the LD50 (Rattus norvegicus [4]; acute, oral, gavage)?
Answer: The LD50 was ≥ 3200 mg/kg.

Question: With `CCCCCCCCCCCCCCCCCC(=O)[O-].CCCCCCCCCCCCCCCCCC(=O)[O-].[Ba+2]` [Octadecanoic acid, barium salt] as the molecule, how does the LD50 (Mus musculus; oral) read?
Answer: Its LD50 is 1830 mg/kg.

Question: Which LEL (Rattus norvegicus [3]; [14]) does the source give for `C=C(C)[C@H]1Cc2c(ccc3c2O[C@@H]2COc4cc(OC)c(OC)cc4[C@@H]2C3=O)O1` [Rotenone] here?
Answer: Its LEL is 1.88 mg/kg-day.

Question: What about the NOEL (Rattus norvegicus [3]; [14]) of the same molecule?
Answer: Its NOEL is 0.38 mg/kg-day.

Question: Which results are given for `[N-]=[N+]=[N-].[Na+]` [Sodium azide]?
Answer: NOEL (Rattus norvegicus [2]; Deaths + Clinical Observation: Hunched posture Ruffled fur Lethargy Decreased appetite Impaired breathing + Body Weight Changes: decrease + …): < 1.25 mg/kg-day; LOAEL (Rattus norvegicus [3]; [15]): 10 mg/kg-day; NOAEL (Rattus norvegicus [3]; [15]): 5 mg/kg-day

Question: What does the source list for `CCNc1nc(NC(C)(C)C)nc(SC)n1` [Terbutryn]?
Answer: LEL (Rattus norvegicus [3]; [16]): 15 mg/kg-day; NOEL (Rattus norvegicus [3]; [16]): 0.1 mg/kg-day

Question: Which LEL (Rattus norvegicus [3]; [17]) does the source give for `CCN(CC)C(=O)SCc1ccc(Cl)cc1` [Thiobencarb] here?
Answer: The LEL was 5 mg/kg-day.

Question: And the NOEL (Rattus norvegicus [3]; [17])?
Answer: The NOEL was 1 mg/kg-day.

Question: `CC1(C)[C@H](C(=O)O[C@H](C#N)c2cccc(Oc3ccccc3)c2)[C@@H]1C(Br)C(Br)(Br)Br` (some centres undefined) [Tralomethrin] was tested. Which LEL (Rattus norvegicus [3]; [18]) did it give?
Answer: The LEL was 3 mg/kg-day.

Question: And the NOEL (Rattus norvegicus [3]; [18])?
Answer: The NOEL was 0.75 mg/kg-day.

Question: And the LEL (Rattus norvegicus [3]; [19])?
Answer: The LEL was 3 mg/kg-day.

Question: And the NOEL (Rattus norvegicus [3]; [19])?
Answer: The NOEL was 0.75 mg/kg-day.

Question: How did the NOAEL (Rattus norvegicus [3]; chronic, reduced hair cystine) turn out when `[O]=[V](=[O])[O][V](=[O])=[O]` [Vanadium oxide (V2O5)] was run?
Answer: The NOAEL was 0.89 mg/kg-day.
